Where two headings read alike, the source gives them in different places.
Target: T1, SIRT1 (Homo sapiens, UniProt Q96EB6)
T1 sequence (Q96EB6 1-747): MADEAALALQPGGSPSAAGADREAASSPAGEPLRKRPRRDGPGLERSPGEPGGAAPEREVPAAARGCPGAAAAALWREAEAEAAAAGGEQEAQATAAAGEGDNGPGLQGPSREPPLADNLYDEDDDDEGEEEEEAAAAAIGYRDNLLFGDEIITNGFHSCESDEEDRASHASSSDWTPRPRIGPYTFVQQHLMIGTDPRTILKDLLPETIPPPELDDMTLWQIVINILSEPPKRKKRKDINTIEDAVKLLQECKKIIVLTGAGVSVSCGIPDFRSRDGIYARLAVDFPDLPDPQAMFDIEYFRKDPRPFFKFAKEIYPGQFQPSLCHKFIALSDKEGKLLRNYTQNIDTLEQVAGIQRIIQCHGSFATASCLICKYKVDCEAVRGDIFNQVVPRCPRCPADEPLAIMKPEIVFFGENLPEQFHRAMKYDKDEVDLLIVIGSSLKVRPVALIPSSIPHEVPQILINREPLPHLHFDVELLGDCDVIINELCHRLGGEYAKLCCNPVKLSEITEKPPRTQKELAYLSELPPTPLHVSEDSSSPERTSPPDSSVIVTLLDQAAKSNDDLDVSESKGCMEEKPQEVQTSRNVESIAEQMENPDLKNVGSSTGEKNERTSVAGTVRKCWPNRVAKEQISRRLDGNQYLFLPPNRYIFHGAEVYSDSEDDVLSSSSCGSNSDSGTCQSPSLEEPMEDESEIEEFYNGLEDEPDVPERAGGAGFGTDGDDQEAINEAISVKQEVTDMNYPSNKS
Test: Trp mass spectrometry assay (SIRT1 activation)
Format: biochemical
Settings: for Emax: percent maximum fold activation of SIRT1, read-out: Tryp % Fold Act
In short: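 N-His-tagged SIRT1 (10 nM), expressed in E. coli, was incubated with 0.5 μM Ac-RHKK(Ac)W-NH2 peptide and 120 μM NAD+ for 25 min at 25 °C in HEPES pH 7.5 with […]. The reaction was stopped with formic acid and O-acetyl-ADP-ribose or deacetylated peptide was quantified by mass spectrometry. Results are given as EC1.5 and percent maximal activation relative to DMSO control.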

[1] = Trp mass spectrometry assay, EC1.5 = concentration of test compound that results in 150% activation of SIRT1
[2] = concentration of test compound that results in 150% activation of SIRT1, Trp peptide substrate
[3] = Trp mass spectrometry assay, EC1.5 = concentration giving 150% activation of SIRT1

Cc1cnccc1NC(=O)N1c2nc(C3CCCC(C(F)(F)F)C3)ccc2N2CC[C@H]1C2 (stereo partly shown) [Example 100]
Tryp AVG EC1.5 (μM) [1]: B (EC1.5 1-25 μM) | Emax (Trp mass spectrometry assay): ≥ 150%

O=C(Nc1cccc(-c2cnco2)c1)N1c2nc(-c3cccc(Cl)c3)ccc2N2CC[C@@H]1C2 [Example 235]
Tryp AVG EC1.5 (μM) [2]: A (EC1.5<1 μM) | Emax (Trp peptide substrate): ≥ 150%

O=C(Nc1cncc(F)c1)N1c2nc(-c3cccc(N4CCC(C(F)(F)F)C4)c3)ccc2N2CC[C@H]1C2 (stereo partly shown) [Example 323]
Tryp AVG EC1.5 (μM) [2]: B (EC1.5 1-25 μM) | Emax (Trp peptide substrate): ≥ 150%

CN(C)[C@H]1CCN(c2ccc3c(n2)N(C(=O)Nc2nccs2)[C@H]2CCN3C2)C1 [Example 247]
Tryp AVG EC1.5 (μM) [2]: B (EC1.5 1-25 μM) | Emax (Trp peptide substrate): ≥ 150%

O=C(Nc1cccc(-c2ccccn2)c1)N1c2nc(-c3cccc(C(F)(F)F)c3)ccc2N2CC[C@H]1C2 [Example 667]
Tryp AVG EC1.5 (μM) [3]: A (EC1.5<1 μM) | Emax (Trp mass spectrometry assay): ≥ 150%

O=C(Nc1cncc(F)c1)N1c2nc(-c3cccc(N4CC[C@@H](F)C4)c3)ccc2N2CC[C@H]1C2 [Example 282]
Tryp AVG EC1.5 (μM) [2]: A (EC1.5<1 μM) | Emax (Trp peptide substrate): ≥ 150%

N#Cc1cccc(-c2ccc3c(n2)N(C(=O)Nc2cncc(F)c2)[C@H]2CCN3C2)c1 [Example 182]
Tryp AVG EC1.5 (μM) [1]: A (EC1.5<1 μM) | Emax (Trp mass spectrometry assay): ≥ 150%

O=C(Nc1cccc(-c2cnco2)n1)N1c2nc(-c3cccc(C(F)(F)F)c3)ccc2N2C[C@@H](O)[C@H]1C2 [Example 698]
Tryp AVG EC1.5 (μM) [3]: A (EC1.5<1 μM) | Emax (Trp mass spectrometry assay): ≥ 150%

CS(=O)(=O)c1cccc(-c2ccc3c(n2)N(C(=O)Nc2cnccn2)[C@H]2CCN3C2)c1 [Example 415]
Tryp AVG EC1.5 (μM) [2]: A (EC1.5<1 μM) | Emax (Trp peptide substrate): ≥ 150%

COc1cc(NC(=O)N2c3nc(-c4ccc(C)nc4)ccc3N3CCC[C@H]2C3)ncn1 [Example 478]
Tryp AVG EC1.5 (μM) [2]: B (EC1.5 1-25 μM) | Emax (Trp peptide substrate): ≥ 150%

Cc1ccc(-c2ccc3c(n2)N(C(=O)Nc2nc(C)c(C)s2)[C@H]2CCCN3C2)cn1 [Example 506]
Tryp AVG EC1.5 (μM) [2]: A (EC1.5<1 μM) | Emax (Trp peptide substrate): ≥ 150%

Cc1cncc(NC(=O)N2c3nc(-c4cccc(C(F)(F)F)c4)ccc3N3C[C@@H](O)[C@H]2C3)c1 [Example 670]
Tryp AVG EC1.5 (μM) [3]: A (EC1.5<1 μM) | Emax (Trp mass spectrometry assay): ≥ 150%

Cc1nc(NC(=O)N2c3nc(-c4cccc(C#N)c4)ccc3N3CC[C@H]2C3)sc1C [Example 179]
Tryp AVG EC1.5 (μM) [1]: A (EC1.5<1 μM) | Emax (Trp mass spectrometry assay): ≥ 150%

COc1cc(NC(=O)N2c3nc(-c4cccc(C(F)(F)F)c4)ccc3N3C[C@@H](O)[C@H]2C3)ncn1 [Example 644]
Tryp AVG EC1.5 (μM) [3]: B (EC1.5 1-25 μM) | Emax (Trp mass spectrometry assay): ≥ 150%

O=C(Nc1ccc(Br)c(-c2cnco2)c1)N1c2nc(-c3cccc(C(F)(F)F)c3)ccc2N2CC[C@H]1C2 [Example 672]
Tryp AVG EC1.5 (μM) [3]: A (EC1.5<1 μM) | Emax (Trp mass spectrometry assay): ≥ 150%

COc1nccc(NC(=O)N2c3nc(-c4cccc(C(F)(F)F)c4)ccc3N3CCC2CC3)n1 [Example 169]
Tryp AVG EC1.5 (μM) [1]: B (EC1.5 1-25 μM) | Emax (Trp mass spectrometry assay): ≥ 150%

C#CCCCNc1nccc(NC(=O)N2c3nc(-c4cccc(C5(C(F)(F)F)N=N5)c4)ccc3N3CC[C@H]2C3)n1 [Example 798]
Tryp AVG EC1.5 (μM) [3]: A (EC1.5<1 μM) | Emax (Trp mass spectrometry assay): ≥ 150%

Cc1nc(NC(=O)N2c3nc(-c4cccc(Cl)c4)ccc3N3C[C@@H](O)[C@H]2C3)sc1C [Example 688]
Tryp AVG EC1.5 (μM) [3]: B (EC1.5 1-25 μM) | Emax (Trp mass spectrometry assay): ≥ 150%

N#Cc1cc(-c2ccc3c(n2)N(C(=O)Nc2cnccn2)[C@H]2CCN3C2)ccc1F [Example 419]
Tryp AVG EC1.5 (μM) [2]: A (EC1.5<1 μM) | Emax (Trp peptide substrate): ≥ 150%

Cc1cc(-c2ccc3c(n2)N(C(=O)Nc2ccc4cn(C)cc4c2)[C@H]2CCN3C2)ccn1 [Example 483]
Tryp AVG EC1.5 (μM) [2]: A (EC1.5<1 μM) | Emax (Trp peptide substrate): ≥ 150%

NCCCc1ccc(NC(=O)N2c3nc(-c4cccc(C(F)(F)F)c4)ccc3N3CCC[C@H]2C3)cc1-c1cnco1 [Example 767]
Tryp AVG EC1.5 (μM) [3]: A (EC1.5<1 μM) | Emax (Trp mass spectrometry assay): ≥ 150%

O=C(Nc1cc(O)ncn1)N1c2nc(N3CCCC(C(F)(F)F)C3)ccc2N2CCC[C@H]1C2 (stereo partly shown) [Example 361]
Tryp AVG EC1.5 (μM) [2]: A (EC1.5<1 μM) | Emax (Trp peptide substrate): ≥ 150%

O=C(Nc1cnccn1)N1c2nc(-c3cccc(C(F)(F)F)n3)ccc2N2CC[C@H]1C2 [Example 338]
Tryp AVG EC1.5 (μM) [2]: B (EC1.5 1-25 μM) | Emax (Trp peptide substrate): ≥ 150%
